# Tests used:
# [1] = system: scopolamine-induced memory deterioration; test: Y maze test; type: in vivo, ICR mice; details: for spontaneous alternation (memory improving effect): male ICR mice, peptide intraperitoneally 30 minutes before scopolamine, scopolamine 30 minutes before test, compared with scopolamine-administered group
# Description: Scopolamine was purchased from Sigma-Aldrich (St. Louis, Mo., USA). 4-week-old male ICR mice were purchased from Korean BioLink Co. (Chungbuk, Korea). After an adaptation period of one week, the mice were used in a test and all reagents were administered intraperitoneally.
# The mouse was placed at one end of a Y maze with a length of one branch of 30 cm, a width of 5 cm, and a height of 13 cm and the order of entry into each branch was recorded. Alternation was judged to be successful if the mouse sequentially entered three different branches. Spontaneous alternation was defined as Equation below. Spontaneous alternation (%)=the number of alternations/(total number of entries−2)×100
# [2] = system: scopolamine-induced memory deterioration; test: step-through passive avoidance test; type: in vivo; details: male ICR mice; peptide intraperitoneally 30 minutes before scopolamine; scopolamine 30 minutes before test; retention trial after 24 hours; compared with scopolamine-administered group
# Description: Louis, Mo., USA). 4-week-old male ICR mice were purchased from Korean BioLink Co. (Chungbuk, Korea). After an adaptation period of one week, the mice were used in a test and all reagents were administered intraperitoneally. […] A passive avoidance test was performed in the same bright room and dark room. A floor of each room was formed in a shape in which 2-mm stainless steel rods were separated from each other at 1-cm intervals. Bright squares (20×20×20 cm) had 100-W bulbs. These squares were connected to a guillotine door. For an acquisition trial, the mouse was placed in the bright room after injection of the reagents and the door was opened after 10 seconds. When the mouse completely entered the dark room, the door was closed and electric shock was applied for 3 seconds. A retention trial was performed after 24 hours of the acquisition trial and the mouse was positioned in the bright room. A latency time of the acquisition and retention trials was measured by a time until the mouse entered the dark room of the box after the door was opened. The retention latency in the passive avoidance test represents a long-term memory function in rodents.
compound,measurement,setting,value
"CN1[C@@H]2C[C@@H](OC(=O)[C@H](CO)c3ccccc3)C[C@H]1[C@@H]1O[C@@H]12 [scopolamine, Scopolamine, reference compound]",mean of spontaneous alternations,[1]; scopolamine-injected group compared with normal saline group,significantly lowered
AGAG [Peptide-3],retention trial latency time (memory improving effect),[2],a little effect
same,spontaneous alternation (memory improving effect),[1],excellent effect as compared with a control group
GAG [Peptide-2],retention trial latency time (memory improving effect),[2],improved to be close to a normal group administered with saline
same,spontaneous alternation (memory improving effect),[1],slight improvement
same,spontaneous alternation (memory improving effect),[1]; listed as sequence number 2,excellent effect as compared with a control group

# Reference: patent US11369659B2, “Method of enhancing a brain or cognitive function” (Brainon Inc., priority 2015, dated 2022)
